A value given as a limit tells only on which side of the number the result lay.

For assay [1], the target named is GABA-A receptor; anion channel. Nature of the assay: Inhibition of [35S]TBPS binding to GABA-A receptor rat whole brain membranes. The class given is cell membranes.
The subject of assay [2] is Mus musculus. Nature of the assay: Anesthetic activity determined as hypnotic dose by intravenous administration in male MF-1 mice. It is filed as functional.
The test system of assay [3] is Mus musculus. Nature of the assay: Anesthetic activity as hypnotic dose by intravenous administration in male MF-1 mice; Convulsant. It is filed as functional, organism-based.
Assay [4] has as its system Mus musculus. Nature of the assay: Anesthetic activity as hypnotic dose by intravenous administration in male MF-1 mice. It is filed as functional.
The test system of assay [5] is Rattus norvegicus. As to the kind of experiment: Dose for 60% Mean burst suppression ratio (BSR) after the start of a 10 s iv bolus injection of compound. It is filed as functional.
Assay [6] is filed under the species Rattus norvegicus. As to the kind of experiment: Parameter value extracted from closed loop infusions to maintain 60% Mean burst suppression ratio (BSR) for 1 hr periods. It is filed as functional.
In assay [7] the test system is Rattus norvegicus. Nature of the assay: Time for Mean burst suppression ratio (BSR) after the start of a 10 s iv bolus injection of compound. It is filed as functional.
Assay [8] concerns Rattus norvegicus. As to the kind of experiment: Time to 1st 0.25 s BS epoch (s) of Mean burst suppression ratio (BSR) after the start of a 10 s iv bolus injection of compound. The class given is functional.
The subject of assay [9] is Rattus norvegicus. As to the kind of experiment: Time to 30% Mean burst suppression ratio (BSR) after the start of a 10 s iv bolus injection of compound. It is filed as functional.
Assay [10] is filed under the species Rattus norvegicus. As to the kind of experiment: (§1) Parameter value extracted from closed loop infusions to maintain 60% Mean burst suppression ratio (BSR) for 1 h periods. It is filed as functional.
Assay [11] deals with Rattus norvegicus. As to the kind of experiment: Time to righting for Mean burst suppression ratio (BSR) after the start of a 10 s iv bolus injection of compound. It is filed as functional.
Assay [12] is filed under the species Rattus norvegicus. The assay is described as §1. The class given is functional, organism-based.

`COCCC(C(=O)Oc1c(OC)cccc1OC)N1CCCOCC1` (racemic) came in with an IC50 in [1] of 69.5 µM. The HD50 in [2] worked out at 20 µM/kg.

`COCCC(C(=O)Oc1c(OC)cccc1OC)N1CCC(OC)CC1` (configuration not stated) displayed an HD50 in [2] of 21 µM/kg.

With `COCCC(C(=O)Oc1c(OC)cccc1OC)N1CCCOCC1` (single isomer, unassigned; form 1), the IC50 in assay [1] was more than 100 µM. In assay [2], this molecule gave an HD50 of 30 µM/kg.

Turning to `COc1cccc(OC)c1OC(=O)C1CNCCN1Cc1ccccc1` (configuration not stated), the HD50 result in assay [3] is on record as “Convulsant”.

`CCOCCC(C(=O)Oc1c(OC)cccc1OC)N1CCCOCC1` (racemic) registered an IC50 in assay [1] of 34.9 µM.

`COCCC(C(=O)Oc1c(OC)cccc1OC)N1CCCCCC1` (configuration not stated) showed an HD50 in assay [2] of 17 µM/kg.

As to `COCCC(C(=O)Oc1c(OC)cccc1OC)N(CCOC)CCOC` (configuration not stated), the HD50 in assay [2] is 27 µM/kg.

With `COCC(C(=O)Oc1c(OC)cccc1OC)N1CCSCC1` (configuration not stated), the HD50 in [2] is 21 µM/kg.

For the molecule `CCOCCN(CCOCC)CC(C(=O)Oc1c(OC)cccc1OC)N(CCOCC)CCOCC` (configuration not stated), the HD50 result in assay [3] was “Convulsant”.

Consider `CCOCCC(C(=O)Oc1c(OC)cccc1OC)N1CCCCCC1` (configuration not stated), for which the HD50 in assay [2] amounted to 25 µM/kg.

In turn, `COc1cccc(OC)c1OC(=O)C(CN1CCOCC1)N1CCc2ccccc2C1` (configuration not stated) displayed an HD50 in [4] of 21 µM/kg.

In assay [4], `COc1cccc(OC)c1OC(=O)C(CN1CCCCC1)N1CCOCC1` (configuration not stated) came in with an HD50 of 15 µM/kg.

For the molecule `CCOCCC(C(=O)Oc1c(OC)cccc1OC)N(CCOC)CCOC` (configuration not stated), the HD50 in [2] turned out to be 27 µM/kg.

With `COc1cccc(OC)c1OC(=O)C1CN(C)CCN1Cc1ccccc1` (configuration not stated), in assay [4], the HD50 came out at 122 µM/kg.

For the molecule `COCC(C(=O)Oc1c(OC)cccc1OC)N1CCCCC1` (configuration not stated), the HD50 in assay [2] turned out to be 146 µM/kg.

In turn, `CCC(=O)N1CCN(Cc2ccccc2)C(C(=O)Oc2c(OC)cccc2OC)C1` (configuration not stated) displayed an HD50 in [4] of 34 µM/kg.

`COc1cccc(OC)c1OC(=O)C(CN1CCCOCC1)N1CCCOCC1` (configuration not stated) gave an HD50 in assay [4] of less than 25 µM/kg.

`CCN1CCN(Cc2ccccc2)C(C(=O)Oc2c(OC)cccc2OC)C1` (configuration not stated): the HD50 in assay [4] came out at 24 µM/kg.

With `COc1cccc(OC)c1OC(=O)C(CN1CCSCC1)N1CCSCC1` (configuration not stated), in [4], the HD50 turned out to be 15 µM/kg.

In turn, `COCCC(C(=O)Oc1c(OC)cccc1OC)N1CCCCC1` (configuration not stated) returned an HD50 in [2] of 22 µM/kg.

The molecule `COc1cccc(OC)c1OC(=O)C(CN1CCOCC1)N1CCSCC1` (configuration not stated) yielded an HD50 in [4] of 19 µM/kg.

With `COCCC(C(=O)Oc1c(OC)cccc1OC)N1CCOCC1` (configuration not stated), in assay [2], the HD50 is 38 µM/kg.

`COCCC(C(=O)Oc1c(OC)cccc1OC)N1C=CCCC1` (configuration not stated) showed an HD50 in [2] of 22 µM/kg.

Regarding `CCOCCN(CCOCC)C(CCOC)C(=O)Oc1c(OC)cccc1OC` (configuration not stated), the HD50 in assay [2] amounted to 28 µM/kg.

Consider `COc1cccc(OC)c1OC(=O)C(CN1CCSCC1)N1CCOCC1` (configuration not stated), for which, in assay [4], the HD50 was determined as 17 µM/kg.

On to `COCC(C(=O)Oc1c(OC)cccc1OC)N1CCCOCC1` (single isomer, unassigned; form 1) [listing 1 of 2 here], for which the 50% inhibitory concentration (IC50) in assay [1] amounted to 35.8 µM. Also, the HD50 in assay [2] amounted to 16 µM/kg. Also, the Dose in assay [5] is 11.4 µM/kg. The Infusion rate in assay [6] is 5 µM/min/kg. Further, in assay [6], the “Time to 30% BSR” value is reported as 2.4 min. The Time is reported as 32 s in assay [7], 12.9 s in [8], 1.3 min in [9] and 3.3 min in [11]. Also, in assay [10], the Time to righting amounted to 6.8 min.

`CCOCCN(CCOCC)C(COC)C(=O)Oc1c(OC)cccc1OC` (configuration not stated) displayed an HD50 in assay [2] of 25 µM/kg.

On to `COCC(C(=O)Oc1c(OC)cccc1OC)N1CCCOCC1` (single isomer, unassigned; form 2), for which the IC50 in assay [1] turned out to be 98.3 µM. Besides, the HD50 in [2] was determined as 40 µM/kg.

In assay [4], `C=CCN1CCN(Cc2ccccc2)C(C(=O)Oc2c(OC)cccc2OC)C1` (configuration not stated) had an HD50 of 31 µM/kg.

For the molecule `COCCCN(CCCOC)C(COC)C(=O)Oc1c(OC)cccc1OC` (configuration not stated), the HD50 in [2] was found to be 46 µM/kg.

For the molecule `COCC(C(=O)Oc1c(OC)cccc1OC)N1CCCOCC1` (single isomer, unassigned; form 1) [listing 2 of 2 here], in assay [12], the Stability of BSR came to 2.5%.

In [2], `CCOCC(C(=O)Oc1c(OC)cccc1OC)N1CCCOCC1` (configuration not stated) had an HD50 of 20 µM/kg.

For the molecule `COCCN(CCOC)CC(C(=O)Oc1c(OC)cccc1OC)N(CCOC)CCOC` (configuration not stated), in assay [3], the HD50 result was “Convulsant”.

With `CCOCCC(C(=O)Oc1c(OC)cccc1OC)N1CCOCC1` (configuration not stated), in assay [2], the HD50 was determined as 36 µM/kg.

In turn, `CCOCCC(C(=O)Oc1c(OC)cccc1OC)N1CCCOCC1` (stereo in doubt) gave an HD50 in assay [2] of 15 µM/kg.

With `CCOCCC(C(=O)Oc1c(OC)cccc1OC)N1CCCOCC1` (single isomer, unassigned), the IC50 in assay [1] is more than 100 µM. The HD50 in assay [2] was found to be 48 µM/kg.

On to `COCCN(CCOC)C(CN1CCOCC1)C(=O)Oc1c(OC)cccc1OC` (configuration not stated), for which, in [4], the HD50 was determined as 75 µM/kg.

`COCCC(C(=O)Oc1c(OC)cccc1OC)N1CCCOCC1` (single isomer, unassigned; form 2): the IC50 in assay [1] amounted to 32.5 µM.

For `CCOCCC(C(=O)Oc1c(OC)cccc1OC)N1CCCOCC1` (stereo in doubt; 39), in [2], the HD50 was 23 µM/kg.

Consider `CCOCCC(C(=O)Oc1c(OC)cccc1OC)N(CCOCC)CCOCC` (configuration not stated), for which the HD50 in [2] turned out to be 47 µM/kg.

As to `CC[C@H](C(=O)Oc1c(OC)cc(C)cc1OC)N(CCOC)CCOC` [ORG-24447], the 50% inhibitory concentration (IC50) in [1] is 29.3 µM. This molecule displayed an HD50 in [4] of 22 µM/kg.

With `CCOCCN(CCOCC)CC(C(=O)Oc1c(OC)cccc1OC)N1CCOCC1` (configuration not stated), in assay [3], the HD50 result is recorded as “Convulsant”.

In turn, `COCC(C(=O)Oc1c(OC)cccc1OC)N1CCCOCC1` (stereo in doubt; 26) had an IC50 in assay [1] of 35 µM. In addition, in assay [2], the HD50 stood at 30 µM/kg.

`COc1cccc(OC)c1OC(=O)C(CN1CCOCC1)N1CCOCC1` (configuration not stated): the HD50 in [4] was 38 µM/kg.

Take `CC(C)c1cccc(C(C)C)c1O` [PROPOFOL]: the HD50 in assay [4] is 68 µM/kg. Besides, the Dose in [5] was 41 µM/kg. In addition, the Time in assay [7] is on record as 30 s; in assay [8], 13.1 s; in [9] it was 1.5 min; in [11], 5.5 min.

For the molecule `COCCC(C(=O)Oc1c(OC)cccc1OC)N1CCCOCC1` (stereo in doubt; 31), the HD50 in assay [2] came to 15 µM/kg.

Take `COCC(C(=O)Oc1c(OC)cccc1OC)N1CCOCC1` (configuration not stated): the HD50 in assay [2] was determined as 54 µM/kg.

Usually IC50 stands for the point on the concentration scale where inhibition reaches its midpoint. Lower therefore signals greater potency.

For the origin of these results see ChEMBL document CHEMBL1136532, “Novel water soluble 2,6-dimethoxyphenyl ester derivatives with intravenous anaesthetic activity” (Bioorg Med Chem Lett, 2003).
